From patent US7084174B2, “Administration of isovaleryl L-carnitine to stimulate osteoblastic activity” (Sigma-Tau Industrie Farmaceutiche Riunite S.p.A., priority 2000, dated 2006)
Where a name gives a salt, the structure may show the parent alone.

Tests used:
[1] = rat; cited from earlier work
human osteoblasts [2] = assay: Cellular proliferation test; type: cell-based; details: for cells proliferation (number of cells, colorimetric test at 540 nm): human osteoblasts, medium without FCS with BSA, increasing doses, 5 days, FIG. 1 / FIG. 2
Procedure: (§1) The differentiated human osteoblasts were prepared starting from bone fragments obtained during surgical operation following the procedure described in Calcif. Tissue Int. 62: 362–365, 1998; and in Calcif. Tissue Int. 37: 453–460, 1985.
(§2) In short, bone fragments were undertaken to enzymatic digestion with collagenase (1 mg/ml) diluted in phosphate buffer in order to remove fibroblasts, haematic endothelial cells or bone marrow cells, if any.
(§3) The fragments so cleaned were maintained in culture in presence of a medium containing 20% of foetal calf serum (FCS) to obtain osteoblasts population for explant.
(§4) The cells so obtained were characterised to verify their osteoblastic phenotype then used for the experiments.
The cellular proliferation test was done growing the cells in 96 well plates, in medium without FCS, and with bovine serum albumin (BSA).
The cells were exposed to increasing doses of L-carnitine fumarate and isovaleryl L-carnitine fumarate. The positive control group was constituted by cells growing in presence of FCS (15%).
Every 24 ore, for 5 days, samples from plates in culture were fixed with a solution of paraformaldehyde at 3%, the cells were stained with crystal-violet at 0.5%, washed to eliminate the excess of stain and a solution of sodium citrate 0.1 M in ethanol was added. The number of the cells contained in the wells was evaluated by colorimetric test at 540 nm.

osteocalcine = details: mice, during formation of the bone matrix; cited from earlier work
human osteoblasts [3] = assay: Production of collagen by incorporation of 3H-proline; type: cell-based; details: FIG. 3
Procedure: as §1, §2, §3, §4
The collagen production represents a method for the evaluation of the osteoblast activity.
This production was evaluated on semiconfluent cells grown on 24 wells plates, in medium without serum (FCS) containing 1 μCi/well of ^3H-proline, both in the wells of the control and in the wells where were present the tested compounds. After 4 hours of incubation in presence of the tracer the cells were lysed and undertaken to an extraction procedure (Journal of Bone and Mineral Research, 2000; Vol. 15(2); 188–97). […] The radioactivity of the cells, as index of the cells collagen synthesis, was evaluated with a beta-counter.

Compound: C[N+](C)(C)CC(O)CC(=O)[O-] (racemic) [D,L-carnitine]
- bone calcium [1]: increases the bone calcium

Compound: C[N+](C)(C)C[C@H](O)CC(=O)[O-].O=C(O)/C=C/C(=O)O [L-carnitine fumarate, reference compound]
- cells proliferation (number of cells, colorimetric test at 540 nm) (human osteoblasts [2]): cells proliferation induced by L-carnitine fumarate

Compound: C[N+](C)(C)C[C@H](O)CC(=O)[O-] [L-carnitine]
- production of osteocalcine (index of better calcification) (osteocalcine): increase the production of osteocalcine

Compound: CC(=O)O[C@H](CC(=O)[O-])C[N+](C)(C)C [acetyl L-carnitine]
- production of osteocalcine (index of better calcification) (osteocalcine): reduces the production of this marker

Compound: CC(C)CC(=O)O[C@H](CC(=O)[O-])C[N+](C)(C)C [isovaleryl L-carnitine fumarate]
- cells proliferation compared with L-carnitine fumarate (human osteoblasts [2]; FIG. 1 versus FIG. 2): induces cells proliferation (FIG. 1) in a more potent way
- cellular proliferation activity at 10^-3 M compared with L-carnitine fumarate at 10^-2 M (human osteoblasts [2]; dose 10 times lower than that of L-carnitine fumarate): has the same cellular proliferation activity
- cells proliferation (number of cells, colorimetric test at 540 nm) (human osteoblasts [2]): promotes cells proliferation
- production of collagen respect to the same doses of L-carnitine fumarate (human osteoblasts [3]; Student t test): favouring activity for the production of collagen in a significant way
- production of collagen (3H-proline incorporation) respect to the control sample (human osteoblasts [3]; semiconfluent cells, medium without serum, 4 hours of incubation with tracer): increases the production of collagen in an higher way respect to the control sample
